# Measurements: patent US12065512B2, “Cyclic peptide and a medicament, external preparation and cosmetic comprising said cyclic peptide” (Igisu Co., Ltd., priority 2015, dated 2024)
# Positions of bridges follow the written chain, without caps; N, C: chain ends. No end group written: not given here.
# System: nasal cavity
# Experiment: Cyclic peptides with amino acid replacement: nasal effect (formulations A to E = 3, 15, 30, 100, 500 μg/ml in physiological saline, 0.1 ml)
# Type: in vivo, human
# Conditions: formulation C (30 μg/ml in physiological saline), once a day, 0.1 ml applied to each nasal cavity; subject with allergic rhinitis
# Method: Next, cyclic peptides with some replaced amino acid were subjected to following examination in order to confirm their effect. The methods for preparing the above cyclic peptide and confirming amino acid sequence of the prepared peptide were same as the method for preparing the cyclic peptide as described above and Mass spectroscopy method.
# 9.3 Confirming Nasal Effect
# The obtained cyclic peptide was prepared in physiological saline at 3, 15, 30, 100 or 500 μg/ml, and 0.1 ml each was applied to nasal cavity. Each of formulations A to E in the table indicates the concentration of the cyclic peptide at 3, 15, 30, 100 or 500 μg/ml, respectively. The absence of the effect upon the application of physiological saline without the peptide confirmed the effect was not a placebo effect.
substance,measurement,value
SEQ ID NO 34 (CFGRKMDRISSSSGVGC; disulfide 1-17),Itches after application,No irritating symptoms.
